Test results published in patent US20120046261A1, “COMPOSITIONS AND METHODS FOR DIAGNOSING AND PREVENTING SPONTANEOUS PRETERM BIRTH” (UNIVERSITY OF UTAH RESEARCH FOUNDATION, priority 2009, published 2012).
“Also recorded” adds a separate entry of the source.

System: women with prior spontaneous preterm birth
Test: Multicenter, prospective, double-blind study of 17P vs. placebo for prevention of recurrent SPTB, secondary analysis by hPR genotype
Type: in vivo, human
Method: The goal of this study was to assess if women with single nucleotide polymorphisms (SNPs) in the human progesterone receptor (hPR) are more or less likely to respond to 17P for the prevention of recurrent SPTB. This study involved secondary analysis of 463 women enrolled in a multicenter, prospective, double-blind study of 17P vs. placebo for the prevention of recurrent SPTB.
Of 463 patients randomized in the original study, 459 were analyzed. Two thirds of women were randomized to 17P and one third were randomized to placebo. Of those patients who received 17P, 111, or 36%, delivered preterm less than 37 weeks, and 195, or 64%, delivered at term. Among those patients who received placebo, the preterm birth rate was higher, as 55% of women delivered preterm. During summer 2008, DNA was extracted from stored saliva samples. […]
20 SNPs in the hPR gene were selected to encompass the large progesterone receptor haplotype block. The 389 individuals with DNA available were then genotyped using TaqMan chemistry with established primers. Allele and genotype frequencies were calculated and evaluated for evidence of genetic predisposition to 17P response. Women were stratified by self-reported race. Primary outcomes evaluated were preterm birth<37 and <32 weeks
Regression was used to assess for an interaction between genotype, treatment, and clinical outcomes. Models controlled for number of prior spontaneous preterm births, smoking, and pre-pregnancy body mass index.
Dominant and recessive models of inheritance were used in this study (see Table 2 above). The dominant model assumes that having at least one copy of the minor allele is sufficient for disease. Patients homozygous for the minor allele and heterozygous patients with one minor allele are grouped together; here “little a/little a” and “Big A/little a” are compared with those homozygous for the major allele, “Big A/Big A.” The recessive model assumes that two copies of the minor allele are needed for disease. Here, those patients who are homozygous for the minor allele “little a/little a” are compared against the others.
Outcomes were available on 459 of the original 463 patients enrolled in the study. The study population of 389 patients was representative of the original cohort (see Table 3 below). The majority of patients in the cohort were African-American. Two-thirds of patients in the cohort received 17P. Furthermore, a similar proportion of patients delivered preterm less than 37 weeks and very preterm, less than 32 weeks, in the cohort when compared to the original study. Additionally, 21.1% of patients smoked during pregnancy. All patients had at least one prior spontaneous preterm birth in order to qualify for the original study. 28% of patients had 2 or more prior spontaneous preterm deliveries. The average pre-pregnancy body mass index was 26.7 kilograms per meter squared.

[1] = all patients who received 17P, original study cohort (459 analyzed)

CCCCCC(=O)O[C@]1(C(C)=O)CC[C@H]2[C@@H]3CCC4=CC(=O)CC[C@]4(C)[C@H]3CC[C@@]21C [17P, 17 alpha-hydroxyprogesterone caproate]
percentage of patients delivering preterm <37 weeks (African Americans, rs471767 AA genotype (homozygous major allele), receiving 17P, placebo nearly 60%): 21%
percentage of patients delivering preterm <37 weeks (African Americans, rs471767 at least one minor allele (G; AG and GG), receiving 17P): under 40%
rate of prematurity (SPTB) (African Americans, rs578029 at least one major allele (T), receiving 17P, placebo approximately 55%): 25%
reduction in preterm birth rates with 17P (African Americans, rs578029 homozygous for the minor allele (A)): no reduction
patients who delivered at term [1]: 64%
patients who delivered preterm less than 37 weeks [1]: 36%
rate of preterm birth <32 weeks gestation (non-African American (Caucasian/Hispanic), rs666553 at least one minor allele (T), receiving 17P, placebo 26.7%): 3.4%
reduction in prematurity (<32 weeks) with 17P (non-African American (Caucasian/Hispanic), rs666553 homozygous for the major allele): do not experience any reduction; also recorded: did not experience any reduction
rate of preterm birth <32 weeks gestation (non-African American, rs503362 at least one minor allele (C), receiving 17P, placebo 17.4%): 2.6%
reduction in the rate of prematurity (<32 weeks) when receiving 17P (non-African American, rs503362 homozygous for the major allele (G)): did not have a reduction
